Key:
[1] = Particle size and polydispersity index of nanoparticle compositions (Zetasizer Nano ZS); format: physicochemical
Protocol: A Zetasizer Nano ZS (Malvern Instruments Ltd, Malvern, Worcestershire, UK) can be used to determine the particle size, the polydispersity index (PDI) and the zeta potential of the nanoparticle compositions in 1×PBS in determining particle size and 15 mM PBS in determining zeta potential.

[2] = Encapsulation efficiency of RNA (QUANT-IT RIBOGREEN RNA assay); format: physicochemical; conditions: for encapsulation efficiency, rank within the named table (in words): comparison amongst compositions
Protocol: For nanoparticle compositions including an RNA, a QUANT-IT™ RIBOGREEN® RNA assay (Invitrogen Corporation Carlsbad, Calif.) can be used to evaluate the encapsulation of an RNA by the nanoparticle composition. The samples are diluted to a concentration of approximately 5 μg/mL in a TE buffer solution (10 mM Tris-HCl, 1 mM EDTA, pH 7.5). 50 μL of the diluted samples are transferred to a polystyrene 96 well plate and either 50 μL of TE buffer or 50 μL of a 2% Triton X-100 solution is added to the wells. The plate is incubated at a temperature of 37° C. for 15 minutes. The RIBOGREEN® reagent is diluted 1:100 in TE buffer, and 100 μL of this solution is added to each well. The fluorescence intensity can be measured using a fluorescence plate reader (Wallac Victor 1420 Multilablel Counter; Perkin Elmer, Waltham, Mass.) at an excitation wavelength of, for example, about 480 nm and an emission wavelength of, for example, about 520 nm. The fluorescence values of the reagent blank are subtracted from that of each of the samples and the percentage of free RNA is determined by dividing the fluorescence intensity of the intact sample (without addition of Triton X-100) by the fluorescence value of the disrupted sample (caused by the addition of Triton X-100).

[3] = tested on: luciferase (Luc) mRNA expression; assay: Expression of Luc induced by sample formulations, whole-body bioluminescence after intravenous administration; format: in vivo; conditions: mice, i.v., 0.5 mg/kg
Protocol: In order to monitor how effectively various nanoparticle compositions deliver therapeutic and/or prophylactic agents to targeted cells, different nanoparticle compositions including a particular therapeutic and/or prophylactic agent (for example, a modified or naturally occurring RNA such as an mRNA) are prepared and administered to rodent populations. Mice are intravenously, intramuscularly, intraarterially, or intratumorally administered a single dose including a nanoparticle composition with a formulation such as those provided in Table 1. In some instances, mice may be made to inhale doses. Dose sizes may range from 0.001 mg/kg to 10 mg/kg, where 10 mg/kg describes a dose including 10 mg of a therapeutic and/or prophylactic agent in a nanoparticle composition for each 1 kg of body mass of the mouse. A control composition including PBS may also be employed.
Upon administration of nanoparticle compositions to mice, dose delivery profiles, dose responses, and toxicity of particular formulations and doses thereof can be measured by enzyme-linked immunosorbent assays (ELISA), bioluminescent imaging, or other methods. For nanoparticle compositions including mRNA, time courses of protein expression can also be evaluated. Samples collected from the rodents for evaluation may include blood, sera, and tissue (for example, muscle tissue from the site of an intramuscular injection and internal tissue); sample collection may involve sacrifice of the animals.
The efficacy of the nanoparticle compositions presented in Tables 1, 1a, 17-1, 19-1, 20-1 and 21-1 was evaluated with a bioluminescence study. Formulations were administered intravenously to mice (n=6) at a dosage of 0.5 mg/kg (mpk) and bioluminescence measured at 3, 6, and 24 hour time points. The standard MC3 formulation and a PBS control were evaluated for comparison.

[4] = pKa of nanoparticle compositions; format: physicochemical
IL-6 = assay: Cytokine production induced by sample formulations: IL-6; format: in vivo; conditions: mice, i.v., 0.5 mpk, 6 hours; for IL-6: in pg/mL (unit assumed)
Excerpt: (§1) The introduction of foreign material into a mammalian body induces an innate immune response that promotes cytokine production. Such immune responses to, for example, nanoparticle compositions including therapeutic and/or prophylactic agents, are undesirable. The induction of certain cytokines is thus measured to evaluate the […] of nanoparticle compositions. The concentrations of various cytokines in mice upon intravenous administration of nanoparticle compositions presented in Tables 1, 1a, 17-1, 19-1, 20-1 and 21-1 at a dosage of 0.5 mpk was measured at 6 hours. The standard MC3 formulation and a PBS control were also tested.

IP-10 = assay: Cytokine production induced by sample formulations: IP-10; format: in vivo; conditions: mice, i.v., 0.5 mpk, 6 hours; for IP-10: in pg/mL (unit assumed)
Excerpt: as §1

[5] = tested on: modified luciferase expression; assay: Expression of Luc in different organs (liver, lung, spleen, femur) 6 hours after intravenous administration; format: in vivo; conditions: i.v., 0.5 mpk
Protocol: The efficacy of the nanoparticle compositions presented in Tables 1, 1a, 17-1, 19-1, 20-1 and 21-1 was further evaluated by measuring the expression of modified luciferase in the liver, lung, spleen, and femur upon administration of a given composition. Formulations were administered intravenously to mice (n=3) at a dosage of 0.5 mpk and bioluminescence measured after 6 hours. The standard MC3 formulation and a PBS control were also tested.

[6] = Table 1, * formulated with lipid:DSPC:Chol:PEG-DMG 50:10:38.5:1.5
[7] = Table 1, * lipid:DSPC:Chol:PEG-DMG 50:10:38.5:1.5
[8] = Table 1, rows without footnote mark
[9] = Table 1, rows without footnote mark (lipid:DOPE:cholesterol:PEG-DMG 40:20:38.5:1.5, Luc mRNA; MC3 standard formulation)
[10] = Table 20-1, rows without footnote mark

Size (nm) [1, 6] [nm]	PDI [1, 7]	EE (%) [2, 7] [%]	encapsulation efficiency, rank within the named table (in words) [2]	pKa [4, 7]	IL-6 (IL-6; Table 4)	IP-10 (IP-10; Table 4)	IL-6 induction, rank within the named table (in words) (IL-6)	Structure (SMILES)	Total Flux 3 hours ([3]; Table 2)	Total Flux 6 hours ([3]; Table 2)	Total Flux 24 hours ([3]; Table 2)	Total Flux Liver ([5]; Table 3, mice)	Total Flux Lung ([5]; Table 3, mice)	Total Flux Spleen ([5]; Table 3, mice)	also measured
78.9	0.210	100.0	highest	6.78	134	919	–	CCCCCCCC/C=C\CCCCCCCCN(CCCCCCCC/C=C\CCCCCCCC)CCN(CCCCCCCC/C=C\CCCCCCCC)CCN1CCNCC1 [Compound 40, N^1,N^1,N^2-Tri((Z)-octadec-9-en-1-yl)-N^2-(2-(piperazin-1-yl)ethyl)ethane-1,2-diamine]	1.24E+08	1.07E+07	5.62E+06	1.33E+06	1.42E+05	5.68E+05	–
–	–	–	–	–	301	7266	highest expression	CCCCCCCCCCCCCCN(CCCCCCCCCCCCCC)CCN(CCCCCCCCCCCCCC)CCN1CCN(CCN(CCCCCCCCCCCC)CCCCCC(=O)OCCCCC)CC1 [Compound 13, Pentyl 6-((2-(4-(2-((2-(ditetradecylamino)ethyl)(tetradecyl)amino)ethyl)piperazin-1-yl)ethyl)(dodecyl)amino)hexanoate]	3.59E+09	3.80E+09	3.11E+08	6.10E+08	2.89E+06	3.63E+07	PDI [1, 8]: 0.080; Size (nm) [1, 9]: 97.7 nm; EE (%) [2, 8]: 64.2%; pKa [4, 8]: 6.30; IP-10 induction, rank or comparison with IL-6 (in words) (IP-10): highest expression; Total Flux Femur ([5]; Table 3, mice): 1.99E+06
–	–	–	–	–	–	–	–	CCCCC/C=C\C/C=C\CCCCCCCCN(CCO)CCN(CCCCCCCCCCCC)CCCCCCCCCCCC [Compound 20-25, 2-((2-(Didodecylamino)ethyl)((9Z,12Z)-octadeca-9,12-dien-1-yl)amino)ethan-1-ol]	–	–	–	–	–	–	PDI [1, 10]: 0.171; Size (nm) [1, 10]: 71.7 nm; EE (%) [2, 10]: 98.4%; Total Flux 3 hours ([3]; Table 20-2): 1.16E+09; Total Flux 6 hours ([3]; Table 20-2): 1.78E+09; Total Flux 24 hours ([3]; Table 20-2): 3.82E+07; pKa [4, 10]: 6.23; IL-6 (IL-6; Table 20-4, formula (20-I)): 20.6; IP-10 (IP-10; Table 20-4, formula (20-I)): 188.0; Total Flux Femur ([5]; Table 20-3, mice): 3.13E+05; Total Flux Liver ([5]; Table 20-3, mice): 1.88E+08; Total Flux Lung ([5]; Table 20-3, mice): 7.85E+05; Total Flux Spleen ([5]; Table 20-3, mice): 4.16E+06
100.8	0.110	100.2	highest	7.81	41	118	–	CCCCCCCCCN(CCCCCCCCC)CCN(CCCCCCCCC)CCN1CCNCC1 [Compound 36, N^1,N^1,N^2-Trinonyl-N^2-(2-(piperazin-1-yl)ethyl)ethane-1,2-diamine]	6.90E+05	3.93E+05	1.68E+05	5.85E+04	2.74E+04	1.24E+05	total flux after 24 hours, rank within the named table (in words) [3]: lowest flux after 24 hours; IP-10 induction, rank or comparison with IL-6 (in words) (IP-10): lowest IP-10 expression
–	–	–	–	–	7	341	lowest IL-6 expression	CCCCCCCCCCCCN(CCCCCCCCCCCC)CCN(CCCCCCCCCCCC)CCN1CCN(C(=O)CN(CCCCCCCCCCCC)CCCCCCCCCCCC)CC1 [Compound 3, 2-(Didodecylamino)-1-(4-(2-((2-(didodecylamino)ethyl)(dodecyl)amino)ethyl)piperazin-1-yl)ethan-1-one]	3.75E+08	1.12E+09	–	1.36E+08	8.47E+05	9.51E+05	PDI [1, 8]: 0.044; Size (nm) [1, 9]: 73.5 nm; EE (%) [2, 8]: 92.5%
–	–	–	highest	–	–	–	–	CCCCCCCCCCCCN(CCCCCCCCCCCC)CCNCCO [Compound 20-19, 2-((2-(Didodecylamino)ethyl)amino)ethan-1-ol]	–	–	–	–	–	–	PDI [1, 10]: 0.145; Size (nm) [1, 10]: 74.9 nm; EE (%) [2, 10]: 99.5%; Total Flux 3 hours ([3]; Table 20-2): 5.37E+05; Total Flux 6 hours ([3]; Table 20-2): 7.60E+05; Total Flux 24 hours ([3]; Table 20-2): 6.08E+05; pKa [4, 10]: 4.73; IP-10 (IP-10; Table 20-4, formula (20-I)): 127.2; Total Flux Liver ([5]; Table 20-3, mice): 3.80E+05; Total Flux Lung ([5]; Table 20-3, mice): 1.96E+04; Total Flux Spleen ([5]; Table 20-3, mice): 2.74E+04
86.6	0.107	99.9	highest	6.45	–	198	–	CCCCCCCCCCCCN(CCCCCCCCCCCC)CCN(CCCCCCCCCCCC)CCN1CCNCC1 [Compound 37, N^1,N^1,N^2-Tridodecyl-N^2-(2-(piperazin-1-yl)ethyl)ethane-1,2-diamine]	1.19E+07	6.66E+06	9.38E+05	1.92E+06	6.90E+05	9.75E+05	total flux after 24 hours, rank within the named table (in words) [3]: lowest flux after 24 hours

Structure (SMILES)	Size (nm) [1, 6] [nm]	PDI [1, 7]	EE (%) [2, 7] [%]	encapsulation efficiency, rank within the named table (in words) [2]	pKa [4, 7]	IL-6 (IL-6; Table 4)	IP-10 (IP-10; Table 4)	IL-6 induction, rank within the named table (in words) (IL-6)	Total Flux 3 hours ([3]; Table 2)	Total Flux 6 hours ([3]; Table 2)	Total Flux 24 hours ([3]; Table 2)	Total Flux Liver ([5]; Table 3, mice)	Total Flux Lung ([5]; Table 3, mice)	Total Flux Spleen ([5]; Table 3, mice)	also measured
CCCCCCCCCN(CCO)CCCCCCCCC [Compound 17-10, 2-(Dinonylamino)ethan-1-ol]	–	–	–	did not encapsulate RNA with high efficiency	–	–	–	lowest IL-6 levels	–	–	–	–	–	–	PDI ([1]; Table 17-1): 0.239; Size (nm) ([1]; Table 17-1): 165.0 nm; particle size, rank within the named table (in words) ([1]; comparison amongst compositions): largest particles; EE (%) ([2]; Table 17-1): 30.3%; Total Flux 3 hours ([3]; Table 17-2): 6.61E+05; Total Flux 6 hours ([3]; Table 17-2): 1.16E+06; Total Flux 24 hours ([3]; Table 17-2): 4.06E+05; pKa ([4]; Table 17-1): 2.85; IL-6 (IL-6; Table 17-4): 7.33; IP-10 (IP-10; Table 17-4): 243; Total Flux Liver ([5]; Table 17-3, mice): 2.00E+05; Total Flux Lung ([5]; Table 17-3, mice): 2.52E+04; Total Flux Spleen ([5]; Table 17-3, mice): 1.74E+04

Source: patent publication US10195156B2, “Compounds and compositions for intracellular delivery of agents” (ModernaTX, Inc., priority 2015, dated 2019)
